The source of these data is patent US8623892B2, “Metalloenzyme inhibitor compounds” (Viamet Pharmaceuticals, Inc., priority 2010, dated 2014).

SMILES strings stand for the structures.

For one data set, the target named is CYP17 (Rattus norvegicus (Rat), UniProt P11715). In words: Inhibition of CYP17 (pooled rat testicular microsomes). It is filed as biochemical. As to the method: CYP17 activity was assayed according to the following procedure. […] The individual test compound and isozyme inhibitor solutions were then diluted 20-fold with deionized water (50:950 v/v) to concentrations of 135, 27, 4.5, 0.9, 0.15, 0.03 and 0.005 μM. […] For active controls, blank test compound diluent was added in place of test compound solution.
Sequence of CYP17 (P11715 whole entry): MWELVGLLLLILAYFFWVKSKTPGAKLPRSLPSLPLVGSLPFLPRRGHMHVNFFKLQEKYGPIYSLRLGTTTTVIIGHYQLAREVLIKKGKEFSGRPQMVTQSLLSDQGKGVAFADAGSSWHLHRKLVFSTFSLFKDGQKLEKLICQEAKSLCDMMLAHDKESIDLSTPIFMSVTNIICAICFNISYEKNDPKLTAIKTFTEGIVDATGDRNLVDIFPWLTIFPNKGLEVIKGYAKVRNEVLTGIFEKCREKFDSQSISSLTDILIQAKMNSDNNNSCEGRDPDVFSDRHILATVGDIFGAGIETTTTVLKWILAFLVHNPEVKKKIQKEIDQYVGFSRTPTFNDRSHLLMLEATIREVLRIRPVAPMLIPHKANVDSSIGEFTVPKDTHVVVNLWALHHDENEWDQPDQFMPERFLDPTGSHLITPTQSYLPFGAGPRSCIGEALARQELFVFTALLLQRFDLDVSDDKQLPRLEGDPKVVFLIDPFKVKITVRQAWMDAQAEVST

The target of a further data set is CYP2C9 (Homo sapiens (Human), UniProt P11712). In words: Inhibition of liver cytochrome P450 enzymes (pooled human liver microsomes), CYP2C9. To be noted: read-out: CYP2C9 IC50. As for the experimental part: (§1) Solutions of each test compound were separately prepared at concentrations of 20000, 6000, 2000, 600, 200, and 60 μM by serial dilution with DMSO:MeCN (50:50 v/v). The individual test compound solutions were then diluted 20 fold with DMSO:MeCN:deionized water (5:5:180 v/v/v) to concentrations of 1000, 300, 100, 30, 10, and 3 μM. […] The percent of organic solvent attributable to the test compound or inhibitor mixture in the final reaction mixture was 2% v/v.
Sequence of CYP2C9 (P11712 whole entry): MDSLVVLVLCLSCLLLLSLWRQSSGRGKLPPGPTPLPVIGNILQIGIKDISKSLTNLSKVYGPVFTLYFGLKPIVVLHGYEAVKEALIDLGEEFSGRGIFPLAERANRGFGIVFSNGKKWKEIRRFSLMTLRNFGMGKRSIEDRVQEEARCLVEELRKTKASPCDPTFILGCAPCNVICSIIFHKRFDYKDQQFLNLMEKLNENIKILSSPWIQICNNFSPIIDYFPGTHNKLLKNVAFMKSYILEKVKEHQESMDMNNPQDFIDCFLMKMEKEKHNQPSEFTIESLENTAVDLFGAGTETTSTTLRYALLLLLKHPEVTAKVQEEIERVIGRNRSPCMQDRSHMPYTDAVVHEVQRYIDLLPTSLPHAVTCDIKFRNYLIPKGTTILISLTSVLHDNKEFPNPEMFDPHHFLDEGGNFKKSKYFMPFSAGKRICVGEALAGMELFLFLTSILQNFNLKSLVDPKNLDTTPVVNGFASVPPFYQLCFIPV
(§2) Pooled human liver microsome suspension (20 mg/mL) was diluted with phosphate buffer to obtain a 5 mg/mL suspension. A solution of NADPH was prepared in phosphate buffer at a concentration of 5 mM. Separate stock solutions of each substrate were prepared in DMSO:MeCN (50:50 v/v), mixed, and diluted in phosphate buffer to obtain a single solution containing each substrate at five times its experimentally determined Km concentration. […]
(§3) Substrate solution and microsome suspension were combined in a 1:1 volume ratio, mixed, and distributed to reaction wells of a PCR plate. […] A portion of the supernatant was analyzed by gradient reverse-phase HPLC with detection by electrospray ionization triple quadrupole mass spectrometry in the positive ion mode.
(§4) Data was fitted to sigmoid dose-response curves and the inhibitory potency of each test compound was determined as its IC50 value.

A further data set has as its target CYP2C19 (Homo sapiens (Human), UniProt P33261). In words: Inhibition of liver cytochrome P450 enzymes (pooled human liver microsomes), CYP2C19. As to conditions: read-out: CYP2C19 IC50. As for the experimental part:
as §1, §2, §3, §4

Sequence of CYP2C19 (P33261 whole entry): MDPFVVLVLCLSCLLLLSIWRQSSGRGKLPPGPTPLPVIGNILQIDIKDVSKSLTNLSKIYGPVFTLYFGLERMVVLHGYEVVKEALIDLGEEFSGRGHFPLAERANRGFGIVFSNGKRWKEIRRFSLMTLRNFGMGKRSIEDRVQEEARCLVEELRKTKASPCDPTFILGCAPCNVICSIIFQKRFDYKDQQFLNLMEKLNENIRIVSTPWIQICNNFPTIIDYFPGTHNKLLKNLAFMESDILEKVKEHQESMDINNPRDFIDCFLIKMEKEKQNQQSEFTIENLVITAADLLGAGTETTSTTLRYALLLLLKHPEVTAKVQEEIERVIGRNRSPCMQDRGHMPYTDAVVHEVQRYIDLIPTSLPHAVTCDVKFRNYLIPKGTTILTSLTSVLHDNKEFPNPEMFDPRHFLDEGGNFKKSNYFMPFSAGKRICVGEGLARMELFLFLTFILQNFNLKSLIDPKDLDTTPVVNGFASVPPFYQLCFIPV

Regarding `COc1cc2ccc(C(O)(c3c[nH]nn3)C(C)C)cc2cc1OC` (centres unmarked) [Example 1, 1-(6,7-Dimethoxynaphthalen-2-yl)-2-methyl-1-(1H-1,2,3-triazol-4-yl)propan-1-ol], the IC50 on CYP17 is 0.18 µM; at CYP2C9, 39 µM; at CYP2C19, 33 µM.

In the case of `CC(C)C(O)(c1ccc2cc(OC(F)F)c(OC(F)F)cc2c1)c1c[nH]nn1` (centres unmarked) [Example 3, 1-(6,7-Bis(difluoromethoxy)naphthalen-2-yl)-2-methyl-1-(1H-1,2,3-triazol-4-yl)propan-1-ol], the figures for the IC50 on CYP2C9 and at CYP2C19 were 12 µM and 19 µM, respectively.

`CC(=O)N1CCN(c2ccc(OCC3COC(Cn4ccnc4)(c4ccc(Cl)cc4Cl)O3)cc2)CC1` (centres unmarked) [Ketoconazole, reference compound]: inhibition on CYP17 was half-maximal at 0.4 µM (IC50).

The compound `CC(C)C(O)(c1ccc2cc(-c3cnco3)ccc2c1)c1c[nH]nn1` (centres unmarked) [Example 4, 2-Methyl-1-(6-(oxazol-5-yl)naphthalen-2-yl)-1-(1H-1,2,3-triazol-4-yl)propan-1-ol] gave an IC50 at CYP17 of 0.51 µM.

`COc1cc2cnc(C(O)(c3c[nH]nn3)C(C)C)cc2cc1OC` (centres unmarked) [Example 2, 1-(6,7-Dimethoxyisoquinolin-3-yl)-2-methyl-1-(1H-1,2,3-triazol-4-yl)propan-1-ol] came in with a half-inhibitory concentration (IC50) against CYP17 of 0.96 µM.
